Tested on: LAPC-4, expressing wild-type AR

SMILES: C[C@]12CCC(=O)C[C@@H]1CC[C@@H]1[C@@H]2CC[C@]2(C)[C@@H](O)CC[C@@H]12 [DHT, 5α-dihydrotestosterone]
- PSMA expression: low level of PSMA

Source: patent US20130315830A1, “PSMA as a BioMarker for Androgen Activity in Prostate Cancer” (Cornell University, priority 2012, published 2013)
